Measured values reported in patent US20230173018A1, “CASPOFUNGIN DERIVATIVES AND ASSAYS FOR EVALUATING ANTIFUNGAL TREATMENT EFFICACY” (priority 2020, published 2023).

Key:
Type in all cases: cell-based
[1] = tested on: C. albicans SC5314 and C. albicans SN152; experiment: Effect of endocytosis inhibitors on growth of Candida cells; details: 8 μg/mL, FIGS. 6C-6F
[2] = tested on: C. albicans SC5314 and SN152 cells; experiment: Effect of endocytosis inhibitors on probe 1 uptake, flow cytometry; details: 8 μg/mL inhibitor, 1 μM probe 1, after 30 min, both SC5314 and SN152
Experimental: Assuming that echinocandin probe uptake occurs via endocytosis, then inhibitors of endocytosis should inhibit probe uptake as well. The accumulation of probe 1 in C. albicans SC5314 and SN152 cells was measured by flow cytometry in the absence and presence of endocytosis inhibitors trifluoperazine (TFP) or pyrroloquinoxaline derivative CGS 12066B (FIG. 6A).
For example, after 30 min, TFP inhibited the uptake of probe 1 by approximately 30% and CGS 12066B inhibited its uptake by approximately 60% in both C. albicans SC5314 and SN152.

[3] = tested on: C. albicans SC5314 and SN152; experiment: Competition for cellular uptake with probe 1, flow cytometry; details: added simultaneously with probe 1; caspofungin 1 μM, 10 μM; fluconazole 10 μM
Experimental: To determine if caspofungin competes for cellular uptake with fluorescent probe 1, both the drug and the probe were added simultaneously to cultures of strains SC5314 and SN152. The uptake of probe 1 was measured by flow cytometry every 15 minutes for 1 hour (FIG. 6B). […] No effect on the uptake of probe 1 was detected in cells co-treated with the antifungal azole drug fluconazole, which inhibits the biosynthesis of fungal membrane sterol, ergosterol.

SMILES	effect on growth [1]	inhibition of the uptake of probe 1 [2]	inhibition at 8 µg/mL ([2]; Candida albicans, 0.5 h) [%]	effect on the uptake of probe 1 [3]
CN1CCN(c2nc3cc(C(F)(F)F)ccc3n3cccc23)CC1.O=C(O)/C=C\C(=O)O.O=C(O)/C=C\C(=O)O [CGS 12066B]	modestly reduce growth	approximately 60%		
CN1CCN(CCCN2c3ccccc3Sc3ccc(C(F)(F)F)cc32)CC1 [TFP, trifluoperazine]	modestly reduce growth		~30	
OC(Cn1cncn1)(Cn1cncn1)c1ccc(F)cc1F [fluconazole]				No effect
